The values below come from patent US5283343A, “2-aryl substituted N-acetyltryptamines and process of preparing such” (priority 1991, dated 1994).

“Also recorded” adds a separate entry of the source.

Test [1] in a line: Behavioral despair (forced swimming) test for antidepressants, C3H/HeN mice. Format: in vivo, mouse (C3H/HeN). An excerpt: (§1) Methods: Typical and atypical antidepressants reduce the time during which mice are immobile in a forced swimming test. [Porsolt et al., Arch. Int. Pharmacodun. Ther. 229:327-336 (1977)]. This test, known as the behavioral despair test, appears to be a good predictor of clinical antidepressant activity.
(§2) Male albino Swiss ND/4 mice and C3H/HeN mice (4 to 5 weeks old) were purchased from Harlam Sprague Dawley (Indianapolis, Ind.). […] The animals were kept in the same facilities at least two weeks before the experiment to allow them to adapt to a 14/10 hour light/dark cycle (lights on at 4 a.m./off at 6 p.m.).
(§3) Mice were housed in groups of 10 in polycarbonate plastic cages 137/8×85/8×51/8 inches with 88 square inches of floor space) with free access to feed (Agway 3000 rat, mouse and hamster feed) and water. During the light period, light intensity at the level of the cages was about 250 lux. The room temperature was kept constant at 22±1° C. The present series of experiments were conducted between October, 1986 and January, 1987.
(§4) The day of the experiment, mice were weighed, marked on the tail and placed in cages (8 mice per cage) as described above. Animals were transferred to the laboratory where the swim test was to be conducted at 10:00 a.m. for noon experiments and at 5:00 p.m. for evening experiments. For noon experiments, the swim test was started at 12:00 h and for midnight experiments, the swim test was started at 24:00 h. Two mice obtained from different experimental groups were tested simultaneously.
(§5) Apparatus: The apparatus consisted of two glass beakers (height: 13 cm; diameter: 11.5 cm), each placed inside a bigger glass beaker (height: 20 cm; diameter: 12.4 cm) containing 6 cm of water at 23±1° C. A non-transparent panel placed between the two cylinders prevented the mice from seeing each other. At midnight, experiments were conducted under red dim light (Kodak, filter A) provided by two photographic safety lights located at each side of the beakers.
(§6) Drugs: Mice were injected with vehicle or drugs dissolved in vehicle dissolved at the appropriate concentrations. Each mouse received 0.1 ml of liquid/10 g body weight. Drugs were dissolved immediately before the experiment. Desipramine was obtained from Sigma (St. Louis, Mo.) and dissolved in water. […] Bright light was administered with a fluorescent lamp placed one foot above the mice.
(§7) Methods The swim test was conducted as described by Porsolt et al. [Arch. Int. Pharmacodyn. 229:327-336 (1977)]. Forced swim in a narrow cylinder induced a depressed state characterized by an immobile posture, which is readily identifiable. A mouse is considered to be immobile when it ceases struggling and remains floating motionless in the water, making only those movements necessary to keep its head above water. […] Two mice that had received different treatments were observed simultaneously. Mice were dropped into the cylinders and left in the water for 6 minutes. The time of immobility was recorded during the last 4 minutes of swimming.

The target in test [2] is T1, melatonin receptor (Oryctolagus cuniculus, UniProt G1SUP2).
T1 sequence (G1SUP2 1-362): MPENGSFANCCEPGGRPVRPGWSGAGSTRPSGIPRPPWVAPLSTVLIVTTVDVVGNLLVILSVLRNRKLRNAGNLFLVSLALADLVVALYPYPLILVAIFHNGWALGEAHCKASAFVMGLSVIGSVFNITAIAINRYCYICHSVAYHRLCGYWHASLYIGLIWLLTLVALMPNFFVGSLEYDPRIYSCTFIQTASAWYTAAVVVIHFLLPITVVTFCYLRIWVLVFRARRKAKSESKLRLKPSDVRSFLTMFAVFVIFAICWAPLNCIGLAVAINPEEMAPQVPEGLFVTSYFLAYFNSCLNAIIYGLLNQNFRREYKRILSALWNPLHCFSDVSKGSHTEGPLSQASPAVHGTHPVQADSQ
In words: Melatonin receptor assay: calcium-dependent/stimulation-evoked release of 3H-dopamine from rabbit retina (Dubocovich assay). Format: biochemical. Particulars: for effect on melatonin concentration-response curves / melatonin-induced inhibition of calcium-dependent 3H-DA release: compound present during S1 and S2, 0.1, 1 or 10 μM, FIGS. 3a, 3b. As to the method:
Briefly, dopamine release was elicited in vitro by electrical field stimulation (3 Hz, 1 min. 20 mA, […].) of rabbit retinal pieces which had been prelabeled with ^3 H-dopamine. Release was determined as the percentage of total tissue radioactivity that was released during stimulation(s) minus the spontaneous release level determined before and after stimulation. Two periods of stimulation (S1 and S2) were applied 40 minutes apart in each experiment. Results are expressed as the ratio of release in S2 to release in S1 (FIG. 1.).
Drugs are added 20 minutes before the second stimulation to test their effect on the spontaneous and stimulation evoked release of ^3 H-dopamine.
First, the compounds (antagonists) were tested alone to determine their effect on spontaneous and stimulated release of dopamine (FIG. 2a.).
The compound of Example A was present during both S1 and S2 at a concentration of 0.1 μM, 1 μM, or 10 μM. Control is .largecircle..

The nature of test [3]: Behavioral despair (forced swimming) test for antidepressants, albino Swiss ND/4 mice. Format: in vivo, mouse (male albino Swiss ND/4). The settings on record: for Duration of Immobility: albino Swiss ND/4 mice, 30 mg/kg; for change in time of immobility (in words): albino Swiss mice, noon or midnight.
Text: as §1, §2, §3, §4, §5, §6, §7

For test [4], the target named is T1, melatonin receptor. The settings on record: in vitro, Dubocovich literature; cited from earlier work.
Test [5] concerns melatonin receptor. The settings on record: rabbit or chicken retina, Dubocovich 1985; cited from earlier work.
Setting [6] is: C3H/HeN mice, 3.00 mg/kg, midnight, control 67.7 ± 2.15.
Setting [7] is: C3H/HeN mice, 3.00 mg/kg, noon, control 47.7 ± 3.4.
Where [8] appears, read: C3H/HeN mice, 10.00 mg/kg, midnight, control 67.7 ± 2.15.
Where [9] appears, read: C3H/HeN mice, 10.00 mg/kg, noon, control 47.7 ± 3.4.
Where [10] appears, read: C3H/HeN mice, .03 mg/kg, midnight, control 67.7 ± 2.15.
Setting [11] is: C3H/HeN mice, .03 mg/kg, noon, control 47.7 ± 3.4.
Where [12] appears, read: C3H/HeN mice, noon and midnight.

With `CC(=O)NCCc1c(Cc2ccccc2)[nH]c2ccccc12` [Example N-0774, 2-benzyl-N-acetyl tryptamine], the “Duration of Immobility” value in test [1] (setting [6]) was found to be 16.1 ± 5.2 s; in test [1] (setting [7]), 37.4 ± 6.6 s; in test [1] (setting [8]) it was 13.1 ± 3.6 s; in test [1] (setting [9]) it was 52.1 ± 6.8 s; in test [1] (setting [10]) it was 47.7 ± 4.7 s; in test [1] (setting [11]), 53.8 ± 8.8 s. Further, the “Duration of Immobility” value in test [1] (Table 4, 10 mg/kg, midnight, control 67.7 ± 2.15, strain not given) amounted to 16.1 ± 5.20 s; in test [3] (midnight, control 84.3 ± 11.2), 81.4 ± 3.9 s; in test [3] (noon, control 72.4 ± 4.9) it was 57.4 ± 8.9 s. The “change in time of immobility (in words)” value in test [1] (setting [12]) is recorded as “reduces the time of immobility in a dose-dependent fashion, the effect being more pronounced at midnight than at noon”; in test [1] (midnight, compared with bright light), “decreases the time of immobility”; in test [3], “neither melatonin nor the melatonin receptor antagonist N-0074 modified the time of immobility”. For the same compound, the “estimated KB (affinity constant from the Schild plot)” value at melatonin receptor [2] (antagonist against melatonin, rabbit retina, antagonist 0.1, 1 or 10 μM in S1 and S2) is 20 µM. At melatonin receptor [2] (compound alone, 0.1-10 μM, FIG. 2a, listed as Example A), the “direct effect on spontaneous dopamine release (Sp2/Sp1)” value is listed as “little or no direct effects; also recorded: did not modify the control ratio Sp2 /Sp1”. Moreover, on melatonin receptor [2] (compound alone, 0.1-10 μM, FIG. 2b, listed as Example A), the “direct effect on stimulated (calcium-dependent) dopamine release (S2/S1)” value is reported as “little or no direct effects; also recorded: did not modify the control ratio”. Moreover, the entries for the “effect on melatonin concentration-response curves / melatonin-induced inhibition of calcium-dependent 3H-DA release” value on melatonin receptor [2] (listed as Example A) and on melatonin receptor [2] (listed as Luzindole (N-0774)) were “shifted in parallel to the right” and “antagonization of melatonin-induced inhibition”, respectively. At melatonin receptor [2] (rabbit retina), the “activity at melatonin receptors (conclusion)” value is “potent, competitive antagonist at melatonin receptors”.

Regarding `CNCCCN1c2ccccc2CCc2ccccc21` [Desipramine], the “Duration of Immobility” value in test [1] (setting [6]) worked out at 16.1 ± 6.0 s; in test [1] (setting [7]) it was 20.7 ± 3.7 s; in test [1] (setting [8]), 13.2 ± 7.2 s; in test [1] (setting [9]), 20.7 ± 2.0 s; in test [1] (setting [10]) it was 33.2 ± 7.3 s; in test [1] (setting [11]), 46.2 ± 12.9 s. In addition, the “Duration of Immobility” value in test [3] (midnight, control 84.3 ± 11.2) came out at 46.0 ± 1.3 s; in test [3] (noon, control 72.4 ± 4.9), 38.2 ± 5.1 s. Moreover, the “change in time of immobility (in words)” value was “more potent to reduce the time of immobility at midnight than at noon” in test [1] (setting [12]); “same decrease in time of immobility in the behavioral despair test at noon and at midnight” in test [3].

For the compound `COc1ccc2[nH]cc(CCNC(C)=O)c2c1` [Melatonin, 5-methoxy-N-acetyl tryptamine], the “inhibition of calcium-dependent release of 3H dopamine from rabbit retina” value on melatonin receptor [4] is on record as “inhibit dopamine release; also recorded: picomolar concentrations”. In addition, the “Duration of Immobility” value in test [1] (C3H/HeN mice, 30 mg/kg, Noon (In-Darkness Administration), control 29.5 ± 3.34) stood at 48.2 ± 5.02 s; in test [1] (C3H/HeN mice, 30.00 mg/kg, midnight, control 67.7 ± 2.15), 57.9 ± 9.0 s; in test [1] (C3H/HeN mice, 30.00 mg/kg, noon, control 47.7 ± 3.4), 45.9 ± 18.0 s. The “change in time of immobility (in words)” value was “did not change the time of immobility” in test [1] (setting [12]); “increased the time of immobility” in test [1] (C3H/HeN mice, noon, in-darkness administration); “neither melatonin nor the melatonin receptor antagonist N-0074 modified the time of immobility” in test [3].

On to `CC(=O)NCCc1c[nH]c2ccccc12` [N-acetyl tryptamine], for which the “melatonin receptor antagonist property” value in the test with melatonin receptor [5] is “melatonin receptor antagonist”.
